How the values were obtained:
Format in all cases: biochemical
[1] = molecular target: T1, receptor-interacting protein kinase 2 (RIPK2) (Homo sapiens, UniProt O43353); assay: in vitro enzyme inhibition, % inhibition at […]; details: 0.5 µM
R171C RIPK2 [2] = molecular target: T2, R171C RIPK2 (Homo sapiens, UniProt O43353, R171C); assay: in vitro enzyme inhibition, % inhibition at […]; details: 5 µM
[3] = molecular target: T1, receptor-interacting protein kinase 2 (RIPK2); assay: in vitro enzyme inhibition, % inhibition at […]; details: 5 µM
[4] = molecular target: T1, receptor-interacting protein kinase 2 (RIPK2); assay: in vitro RIPK2 enzyme inhibition
[5] = molecular target: T1, receptor-interacting protein kinase 2 (RIPK2); assay: X-ray co-crystal structure ([…] Å); in vitro enzyme inhibition IC50
R171C RIPK2 [6] = molecular target: T2, R171C RIPK2; assay: in vitro RIPK2 enzyme inhibition
R171C RIPK2 [7] = molecular target: T2, R171C RIPK2; assay: in vitro enzyme inhibition, % inhibition at […]; details: 1 µM
[8] = molecular target: T1, receptor-interacting protein kinase 2 (RIPK2); assay: in vitro enzyme inhibition, % inhibition at […]; details: 1 µM

T1 sequence (O43353 whole entry): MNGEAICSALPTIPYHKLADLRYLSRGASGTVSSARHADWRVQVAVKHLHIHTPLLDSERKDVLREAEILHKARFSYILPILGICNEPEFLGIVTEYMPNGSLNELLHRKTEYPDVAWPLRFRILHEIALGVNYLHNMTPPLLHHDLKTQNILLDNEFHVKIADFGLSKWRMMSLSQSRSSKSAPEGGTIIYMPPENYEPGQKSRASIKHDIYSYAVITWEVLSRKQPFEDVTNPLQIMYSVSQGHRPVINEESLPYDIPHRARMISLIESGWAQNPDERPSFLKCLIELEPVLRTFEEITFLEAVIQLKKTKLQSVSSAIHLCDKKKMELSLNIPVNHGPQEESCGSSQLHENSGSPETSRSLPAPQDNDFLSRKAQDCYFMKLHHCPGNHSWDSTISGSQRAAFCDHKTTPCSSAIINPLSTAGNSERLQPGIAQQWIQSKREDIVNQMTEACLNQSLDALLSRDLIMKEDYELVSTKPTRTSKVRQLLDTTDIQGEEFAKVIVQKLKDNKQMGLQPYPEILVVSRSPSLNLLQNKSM
T2 sequence (O43353 whole entry R171C): as the sequence (O43353 whole entry) above, with R171C counted along it

CNC(=O)c1cc(Oc2ccc(NC(=O)Nc3cccc(CC#N)c3)c(F)c2)ccn1 [CSR25]
% Inhibition / RIPK2 WT [1]: 43

CNC(=O)c1cc(Oc2ccc(NC(=O)Nc3cccc(C(C)(C)C(=O)O)c3)c(F)c2)ccn1 [CSR29]
% Inhibition / R171C RIPK2 (R171C RIPK2 [2]): 67

CNC(=O)c1cc(Oc2ccc(NC(=O)Nc3cccc(CC(=O)OC)c3)c(F)c2)ccn1 [CSR30]
% Inhibition / R171C RIPK2 (R171C RIPK2 [2]): 76 | % Inhibition / RIPK2 WT [3]: 69

O=C(O)CSc1ccc(NC(=O)Nc2ccccc2F)cc1F [CSR35F2]
IC50 [4]: 13.2 ± 1.7 µM

CNC(=O)c1cc(Oc2ccc(NC(=O)Nc3ccc(SCC(=O)O)c(F)c3)c(F)c2)ccn1 [CSR35]
IC50 [5]: 2.26 ± 0.11 µM | IC50 (R171C RIPK2 [6]): 4.87 ± 0.96 µM

CNC(=O)c1cc(Oc2ccc(NC(=O)Nc3ccc(SCC(=O)OC)c(F)c3)c(F)c2)ccn1 [CSR36]
% Inhibition / R171C RIPK2 (R171C RIPK2 [7]): 92 | % Inhibition / RIPK2 WT [8]: 94
